# Assay results reported in patent US20250009727A1, “WATER-SOLUBLE SALTS OF DNA BINDING AGENTS” (BOARD OF REGENTS, THE UNIVERSITY OF TEXAS SYSTEM, priority 2021, published 2025).
# Assays:
# [1] = CNS uptake of WP1244; conditions: in vivo
# [2] = Solubility in water and 5% dextrose at room temperature; type: physicochemical
# Description: To improve solubility and develop IV injectable formulation, different salts of WP1244 were prepared.
# [3] = test system: ependymoma cell lines; assay: In vitro cytotoxicity in ependymoma cell lines; type: cell-based
# Source text: (§1) FIG. 3—In vitro efficacy of WP1874 in ependymoma, normal kidney, glioblastoma, and medulloblastoma cell lines.
# [4] = test system: orthotopic U87 model of GBM; assay: In vivo efficacy in orthotopic U87 GBM model; conditions: nude athymic mice, intracranial U87; three doses at 1 and 5 mg/kg IP from day 10
# Description: FIG. 2—In vivo efficacy of WP1244 in orthotopic U87 GBM model. Eighteen nude athymic mice were implanted intracranially with 0.5 mln U87 GBM cells. Animals were randomized into three experimental groups (n=6). The treatment was initiated on day 10 and consisted of three doses ow WP1244 at 1 and 5 mg/kg given IP.
# [5] = test system: glioblastoma multiforme (GBM) cell lines; assay: In vitro cytotoxicity in glioblastoma multiforme (GBM) cell lines; type: cell-based
# Source text: as §1
structure (smiles),measurement,setting,value
COc1cccc2c1C(=O)c1c(O)c3c(c(O)c1C2=O)C[C@](O)(C(C)=O)C[C@H]3OC1CC(NCc2ccc(NC(=O)c3cc(NC(=O)c4cc(NC(=O)c5ccccn5)cn4C)cn3C)cc2)C(O)C(C)O1 (stereo partly shown) [WP1244],CNS uptake,[1],especially high CNS uptake
same,Solubility in 5% Dextrose,"[2]; 5% dextrose, room temperature",Lower than 0.25 mg/mL
same,Solubility (in words),[2]; salt forms compared for IV injectable formulation,poor solubility
same,Solubility in H2O,"[2]; water, room temperature",Lower than 0.25 mg/mL
same,Cytotoxicity,[3],picomolar to low nanomolar
same,In vivo activity in orthotopic U87 GBM model,[4],demonstrated in vivo activity
same,Cytotoxicity,[5],picomolar to low nanomolar
